≈ marks a conversion by molar mass, not a printed value.
Tests used:
[1] = tested on: red blood cells (RBCs) of mice; test: Hemolytic assay; type: cell-based; conditions: hemolytic activity; mouse RBCs, 1 h at 37° C.
Description: Fresh red blood cells (RBCs) of mice were washed with 1×PBS buffer and centrifuged 10 min at 3500 rpm for 3 times until the supernatant was clear, then RBCs were diluted into 5% v/v suspension in 1×PBS. 50 μL compounds in PBS were 2-fold serially diluted in a 96-well plate, and incubated with 50 μL RBCs suspension for 1 h at 37° C. The mixture was then centrifuged for 10 min at 3500 rpm. Subsequently, 30 μL of the supernatant was added to 100 μL PBS, then the absorbance of mixture was read on a Biotek Synergy HT plate reader at 540 nm. The hemolytic activity was calculated by the formula % hemolysis=(Abssample−AbsPBS)/(AbsTriton−AbsPBS)×100%. 1% Triton X-100 were used as the positive control and 1×PBS buffer was used as the negative control.

[2] = tested on: methicillin-resistant S. aureus (MRSA, ATCC 33591); test: Minimum inhibitory concentration (MIC) assay, MRSA; type: cell-based, Staphylococcus aureus
Description: Minimum inhibitory concentrations (MICs) assay.^2
All compounds were tested against six different bacteria strains: methicillin-resistant S. aureus (MRSA, ATCC 33591), E. coli (ATCC 25922), methicillin-resistant S. epidermidis (MRSE, RP62A), K. pneumoniae (ATCC 13383), vancomycin-resistant Enterococcus faecalis (VREF, ATCC 700802), P. aeruginosa (ATCC 27853). One colony of each bacteria was inoculated in 4 mL TSB buffer at 37° C. overnight, which was then diluted 100 times, and the bacteria were allowed to grow to the mid-logarithmic phase. 50 μL hydantoin compounds in 2-fold serial dilution of TSB were added in the 96-well plate, then 50 μL diluted bacterial in TSB medium (1×10^6 CFU/mL) was added to each well. After 16 h of incubation at 37° C., the absorption at 600 nm wavelength on a Biotek Synergy HT microtiter plate reader was recorded. Minimum inhibitory concentrations were determined as the lowest concentrations that inhibited bacteria growth completely.

E. coli = test: Fluorescence microscopy (DAPI/PI) membrane damage, E. coli; type: cell-based, Escherichia coli; conditions: 5 μg/mL, 2 h
Description: Fluorescence microscopy.^2
Both propidium iodide (PI) and 4′, 6′-diamidino-2-phenylindole dihydrochloride (DAPI) fluorescent dyes were used in the studies to determine the ability of the compound 22 to compromise the membranes of MRSA and E. coli, respectively. […] After centrifugation for 15 min at 5000 rpm, cell pellets were washed with 1×PBS buffer, and incubated with PI (5 μg/mL) for 15 min on ice in the dark, then washed 2 times with PBS. Then the cell pellets were incubated with DAPI (10 μg/mL) in the similar way. The pellets were then diluted in 100 μL PBS, and 10-20 μL of the suspension was applied on chamber slides and observed under Zeiss Axio Image Zloptical microscope using 100× oil-immersion objective.

[3] = tested on: colon cancer cells (HCT116); test: Selectivity for mammalian cells, HCT116; type: cell-based; conditions: Homo sapiens, HCT-116; read-out: IC50 toward colon cancer cells (HCT116)

SMILES: CCCCCCCCCCCC(=O)N[C@@H](CCCCN)CN1CC(=O)N(c2cccc(Cl)c2)C1=O [Compound 22, (S)—N-(6-amino-1-(3-(3-chlorophenyl)-2,4-dioxoimidazolidin-1-yl)hexan-2-yl)dodecanamide]
- HC50 [1]: 95 µg/mL
- MIC ([2]; Staphylococcus aureus, Gram positive, ATCC 33591, 16 h incubation, read-out: MIC (μg/mL) MRSA): 0.5 µg/mL
- effectiveness toward MRSA compared with nitrofurantoin ([2]; ratio of MICs): 25 fold
- membrane damage of E. coli (DAPI/PI staining) (E. coli): membranes of both MRSA and E. coli were damaged
- IC50 [3]: 100 µg/mL (≈ 197 µM)
